How the values were obtained:
[1] = system: DB (B-Cell Non-Hodgkin's Lymphoma); experiment: combination Emax (second highest fraction inhibited in the dose matrix, 72 h); higher = more inhibition; extreme values may be limits of the assay
Outline: (§1)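 Cell lines in DMEM/F12 or RPMI with 10% FBS were plated in 1536-well plates, held 24 hours at 37°C, 5% CO2, then given two-drug dose matrices for 72 hours (DMSO typically 0.2%). Viability was read by CellTiter-Glo 2.0 luminescence and scaled as inhibition from 0 (vehicle wells) to 1 (blank wells). Combination Emax is the second-highest inhibition in the matrix; Bliss excess is observed combination effect minus expected EA + EB − EA·EB, EA and EB being single-agent effects.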

[2] = system: SK-N-FI (Neuroblastoma); experiment: as above
Outline: as §1

[3] = system: SN12C (Kidney Carcinoma); experiment: as above
Outline: as §1

[4] = system: LS-513 (Colorectal Carcinoma); experiment: as above
Outline: as §1

[5] = system: NCI-H2595 (Mesothelioma); experiment: as above
Outline: as §1

[6] = system: OCI-AML2 (Acute Myeloid Leukemia); experiment: as above
Outline: as §1

[7] = system: SW1783 (Low Grade Glioma); experiment: as above
Outline: as §1

[8] = system: SW1990 (Pancreatic Carcinoma); experiment: as above
Outline: as §1

[9] = system: KARPAS-1106P (B-Cell Non-Hodgkin's Lymphoma); experiment: as above
Outline: as §1

[10] = system: TE-5 (Esophageal Squamous Cell Carcinoma); experiment: as above
Outline: as §1

[11] = system: NCI-H211 (Small Cell Lung Carcinoma); experiment: as above
Outline: as §1

[12] = system: KARPAS-620 (Plasma Cell Myeloma); experiment: as above
Outline: as §1

[13] = system: G-292-Clone-A141B1 (Osteosarcoma); experiment: as above
Outline: as §1

[14] = system: SN12C (Kidney Carcinoma); experiment: Bliss excess, mean over the matrix (fraction); higher = more synergy
Outline: as §1

[15] = system: KARPAS-1106P (B-Cell Non-Hodgkin's Lymphoma); experiment: as above
Outline: as §1

[16] = system: IHH-4 (Thyroid Gland Carcinoma); experiment: as above
Outline: as §1

[17] = system: TE-5 (Esophageal Squamous Cell Carcinoma); experiment: as above
Outline: as §1

[18] = system: KARPAS-620 (Plasma Cell Myeloma); experiment: as above
Outline: as §1

[19] = system: U-266 (Plasma Cell Myeloma); experiment: as above
Outline: as §1

[20] = system: NCI-H1299 (Non-Small Cell Lung Carcinoma); experiment: as above
Outline: as §1
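Wherever Bliss excess, mean over the matrix is given: after 72 h of two-drug dosing.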

Structure (SMILES)	combination Emax [1]	combination Emax [2]	combination Emax [3]	combination Emax [4]	combination Emax [5]	combination Emax [6]	combination Emax [7]	combination Emax [8]	combination Emax [9]	combination Emax [10]	combination Emax [11]	combination Emax [12]	combination Emax [13]	Bliss excess [14]	Bliss excess [15]	Bliss excess [16]	Bliss excess [17]	Bliss excess [18]	Bliss excess [19]	Bliss excess [20]
Cc1nc(-c2cn3c(n2)-c2ccc(-c4cnn(C(C)(C)C(N)=O)c4)cc2OCC3)n(C(C)C)n1 [Taselisib] + O=C(Nc1ccc2[nH]nc(-c3ccncc3)c2c1)[C@@H]1CCN(CC(=O)N2CCN(c3ccc(-c4ncccn4)cc3)CC2)C1 [SCH772984] (first compound max 10 µM, 7x7, partner max 5 µM)	0.449	0.877	0.387	0.975	0.393	1	0.643	0.655	0.78	0.822	0.55	0.969	0.945	0.0003	0.0391	0.0056	0.113	0.116	0.0774	0.0654
C[C@@H](Oc1cc(-c2cnn(C3CCNCC3)c2)cnc1N)c1c(Cl)ccc(F)c1Cl [Crizotinib] + Cn1cnc2c(F)c(Nc3ccc(Br)cc3Cl)c(C(=O)NOCCO)cc21 [Selumetinib] (first compound max 10 µM, 7x7, partner max 10 µM)	0.751	0.809	0.244	1	0.292	1	0.194	0.158	0.953	0.186	0.943	0.941	0.794	-0.0062	0.0052	-0.0246	-0.0366	0.0729	-0.021	0.0598
N#Cc1cnc(Nc2cc(NC[C@H]3CNCCO3)c(C(F)(F)F)cn2)cn1 [SRA737] + CCc1c2c(nc3ccc(O)cc13)-c1cc3c(c(=O)n1C2)COC(=O)[C@]3(O)CC [SN-38] (first compound max 10 µM, 7x7, partner max 0.3 µM)	0.988	0.606	0.627	0.742	0.389	1	0.857	0.519	0.902	0.851	0.987	0.658	0.41	-0.0485	-0.0918	-0.0117	-0.0682	0.0655	0.0402	0.0179
N#Cc1cnc(Nc2cc(NC[C@H]3CNCCO3)c(C(F)(F)F)cn2)cn1 [SRA737] + C=CCn1c(=O)c2cnc(Nc3ccc(N4CCN(C)CC4)cc3)nc2n1-c1cccc(C(C)(C)O)n1 [AZD1775] (first compound max 10 µM, partner max 1 µM)	0.87	0.722	0.212	0.84	0.236	1	0.467	0.507	0.913	0.482	0.971	0.779	0.239	-0.0184	0.0143	0.14	0.0481	0.133	0.0474	0.0448
O=C(c1cc(Cc2n[nH]c(=O)c3ccccc23)ccc1F)N1CCN(C(=O)C2CC2)CC1 [Olaparib] + Cc1c2c(nn1C)CSCc1cc(n(C)n1)CSc1cc(c3ccccc3c1)OCCCc1c(C(=O)O)n(C)c3c-2c(Cl)ccc13 [AZD5991] (first compound max 10 µM, 7x7, partner max 1 µM)	0.994	0.211	0.065	0.204	0.217	0.953	0.0425	0.238	0.919	0.0405	0.957	1	0.109	-0.053	0.0403	-0.0093	-0.0427	0.0121	-0.0244	-0.0455
CC1(C)CCC(CN2CCN(c3ccc(C(=O)NS(=O)(=O)c4ccc(NCC5CCOCC5)c([N+](=O)[O-])c4)c(Oc4cnc5[nH]ccc5c4)c3)CC2)=C(c2ccc(Cl)cc2)C1 [Venetoclax] + CS(=O)(=O)CCNCc1ccc(-c2ccc3ncnc(Nc4ccc(OCc5cccc(F)c5)c(Cl)c4)c3c2)o1 [Lapatinib] (first compound max 1 µM, 7x7, partner max 10 µM)	0.949	0.223	0.222	0.615	0.197	1	0.207	0.174	0.419	0.218	1	0.981	0.113	-0.0179	-0.0183	-0.0082	-0.0388	0.0569	-0.0555	-0.0402
C[C@@H]1COCCN1c1cc(C2([S@](C)(=N)=O)CC2)nc(-c2ccnc3[nH]ccc23)n1 [AZD6738] + C1CC(C1)(C(=O)[O-])C(=O)[O-].N.N.[Pt+2] [Carboplatin] (first compound max 10 µM, 7x7, partner max 10 µM)	0.435	0.601	0.222	0.727	0.275	0.951	0.447	0.422	0.658	0.541	0.61	0.399	0.328	-0.026	-0.0247	0.0159	-0.0163	-0.0135	-0.0751	-0.0401
